These results are taken from patent US9980937B2, “Therapeutic agent for Alzheimer's disease” (NAGASAKI UNIVERSITY, priority 2014, dated 2018).

For series [1], the system named is neprilysin. Nature of the series: neprilysin-dependent neutral endopeptidase activity of APP-H4 cell extract (suc-AAF-AMC coupled enzyme assay). Type of series: cell-based, human. The following applies: APP-H4 cells, 48 hr, 1 or 10 μM; activity without polyphenol derivative = 1 (FIG. 1). The procedure: (§1) APP-H4 cells were seeded to a 6-well plate at a density of 12×10^4 cells/1.5 mL, and cultured in Dulbecco's modified Eagle's medium (DMEM; Nacalai Tesque, Inc.) added with 10% fetal bovine serum (FBS; Equitech-Bio, Inc. [Kerrville, Tex., USA]), 100 U/mL penicillin+100 μg/mL streptomycin (Nacalai Tesque, Inc.). After culture for 24 hr, the culture supernatant was removed, and the medium was exchanged with a medium with reduced use amount of serum, Opti-MEM (registered trade mark) I Reduced Serum Medium (Life Technologies Corporation, Carlsbad, Calif., USA) (1 mL). A polyphenol derivative (1 μL) to be the test target was added, and the mixture was further cultured for 48 hr. After culture, the culture supernatant was recovered in a tube (total amount 1.5 mL), centrifuged at 4,000×g/4° C./10 min to remove dead cells, and the supernatant (800 μL) was placed in a new tube. The culture supernatant was preserved at −80° C. before sample preparation. The cells were washed twice with ice-cooled phosphate-buffered saline (PBS). Thereafter, the cells were scraped from the plate using a Cell Scraper. The cells were recovered in a 1.5 mL tube and centrifuged at 4,000×g/4° C./10 min. The supernatant was removed and the cells were preserved at −80° C. before sample preparation. The frozen cells were lysed in 40 μL of solubilization buffer containing 1% Triton X-100, protease inhibitor cocktail Complete™ EDTA-free (Roche) and 50 mM Tris-HCl on ice. The cell lysate was incubated on ice for 60 min, centrifuged at 4° C., 21,900×g for 30 min, and the supernatant was recovered and used as a solubilization cell extract.
The total protein concentration of the cell extract was determined by a BCA protein assay kit (Takara) by using BSA as the standard solution. The final concentration of the test compound used was 1 μM or 10 μM, and quantification was performed using each solvent as a control.
The neprilysin-dependent neutral endopeptidase activity of the cell extract was measured fluorescence quantitatively by an indirect coupled enzyme assay method. […] Total 50 μL of the reaction mixture was prepared such that the final concentration was substrate 0.1 mM suc-AAF-AMC, protein in the cell extract 1-6 μg, 100 mM MES buffer (pH 6.5). With the time of addition of the substrate as the start of the reaction, the mixture was reacted at 37° C. for 1 hr, and Phe-AMC was cut out from the substrate by neutral endopeptidase. […] The mixture was reacted at 37° C. for 30 min, and Phe (phenylalanine) residue was cut out from Phe-AMC by aminopeptidase.

Series [2] deals with neprilysin. The experiment in a line: neprilysin expression amount at protein level (western blot, APP-H4 cells). The following applies: 48 hr, standardized to β-actin (FIG. 2). Type of series: cell-based, human. The protocol: as §1
The aforementioned cell extract was mixed with 6×SDS-polyacrylamide gel electrophoresis (SDS-PAGE) sample buffer (Nacalai Tesque, Inc.) at a ratio of 5:1, boiled for 5 min, and used as a detection sample of neprilysin, α-secretase and β-secretase proteins.
The PVDF membrane after transfer was washed with a wash buffer and immersed in a blocking buffer to prevent non-specific binding of the primary antibody, and a blocking reaction was performed at room temperature for 1 hr. […] The PVDF membrane after the reaction was washed with the wash buffer and the secondary antibody (horseradish peroxidase conjugated anti-mouse or anti-rabbit IgG (1:10,000; GE Healthcare UK Ltd.)) corresponding to the primary antibody was reacted at room temperature for 1 hr and detection was carried out using the ECL Select Western Blotting Detection Kit (GE Healthcare UK Ltd.).
The signal intensity of the band was quantified using a densitometer LAS-4000 (GE Healthcare UK Ltd.) and image analysis software Science Laboratory 2003 Image Gauge Version 4.23 (Fujifilm Holdings Corporation, Tokyo, Japan).
(A western blot detects proteins with antibodies after separation by electrophoresis.)

Series [3] concerns neprilysin mRNA (MME gene). The experiment in a line: neprilysin mRNA expression (quantitative real-time PCR, MME gene). Type of series: cell-based, human. The following applies: standardized to GAPDH mRNA (FIG. 3). The protocol:
(§2) In the same manner as in the above-mentioned 2, total RNA was prepared using a High Pure RNA Isolation kit (Roche 11828665001) from the cells to be the test target cells, which were treated with each polyphenol derivative and cultured, and subjected to a reverse transcription reaction using PrimeScript RT-PCR kit (TaKaRaRR014A) to give a sample (cDNA) for real-time PCR.
(§3) The prepared sample, Premix Ex taq (Perfect Real Time) (TaKaRaRR039A) and a probe, and a primer were mixed in a tube (TaKaRa SC910A), and real-time PCR reaction (initial denaturation: 95° C. 30 sec, PCR reaction: 95° C. 5 sec, 60° C. 20 sec, 40 times) was performed by Smart Cycler II System machine (TaKaRa).
(§4) The 5′-terminus of the probe was modified by a fluorescent substance FAM, and the 3′-terminus was modified by a quencher substance TAMRA, respectively.

The target of series [4] is T1, β-secretase (Homo sapiens, UniProt P56817).
T1 construct: endogenous in cells; host or cells: APP-H4 cells (culture supernatant analysed)
T1 sequence (P56817 46-501): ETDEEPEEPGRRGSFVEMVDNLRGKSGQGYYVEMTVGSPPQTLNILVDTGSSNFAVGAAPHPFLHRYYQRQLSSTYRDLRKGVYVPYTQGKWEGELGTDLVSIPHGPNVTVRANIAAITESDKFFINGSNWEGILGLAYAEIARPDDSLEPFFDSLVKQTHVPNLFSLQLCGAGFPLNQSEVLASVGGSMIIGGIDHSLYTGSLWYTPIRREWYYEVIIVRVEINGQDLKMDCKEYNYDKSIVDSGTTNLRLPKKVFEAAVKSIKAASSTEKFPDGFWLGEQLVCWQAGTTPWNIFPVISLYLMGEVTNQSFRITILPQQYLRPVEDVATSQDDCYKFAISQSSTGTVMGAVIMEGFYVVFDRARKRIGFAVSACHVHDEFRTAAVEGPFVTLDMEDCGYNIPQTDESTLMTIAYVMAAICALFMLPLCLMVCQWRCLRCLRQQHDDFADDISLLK
Nature of the series: β-secretase activity (APPsβ, western blot). The conditions noted are these: APP-H4 culture supernatant, APPsβ (FIG. 2). The class given is cell-based. The procedure: as §1, with “extract. […]” for “extract.”
(§5) The signal intensity of the band was quantified using a densitometer LAS-4000 (GE Healthcare UK Ltd.) and image analysis software Science Laboratory 2003 Image Gauge Version 4.23 (Fujifilm Holdings Corporation, Tokyo, Japan). […]

Series [5] concerns APP. Nature of the series: extracellularly secreted APPsα/APPsβ ratio (western blot). The following applies: APP-H4 culture supernatant (FIG. 2). Type of series: cell-based, human. The procedure: as §1
After thawing from −80° C., the aforementioned culture supernatant was mixed with 6×SDS-polyacrylamide gel electrophoresis (SDS-PAGE) sample buffer (Nacalai Tesque, Inc.) at a ratio of 5:1, boiled for 5 min, and used as a detection sample of APPsα which is a metabolite of APP by α-secretase and APPsβ which is a metabolite of APP by β-secretase in western blot analysis.
The PVDF membrane after transfer was washed with a wash buffer and immersed in a blocking buffer to prevent non-specific binding of the primary antibody, and a blocking reaction was performed at room temperature for 1 hr. Thereafter, it was reacted with a primary antibody (APPsα, anti-human APPsα mouse monoclonal antibody (2B3, Immuno-Biological Laboratories Co., Ltd., Gunma, Japan) (3 μg/mL); APPsβ, anti-APPsβ, rabbit polyclonal antibody, 1 μg/mL) to perform an antigen-antibody-reaction at 4° C. for not less than 16 hr. […]
as §5

The subject of series [6] is ADAM17. Nature of the series: α-secretase mRNA expression, ADAM17 (real-time PCR). Type of series: cell-based, human. The following applies: control = 1. The procedure: as §2, §3, §4
Background: Quantitative PCR measures a nucleic acid by following its amplification.

For series [7], the system named is neprilysin, α-secretase, β-secretase. Nature of the series: overall conclusion on modulation of neprilysin, α-secretase and β-secretase (Example 1). Type of series: cell-based, human. The conditions noted are these: conclusion from the results of Example 1. The protocol:
as §1
The neprilysin-dependent neutral endopeptidase activity of the cell extract was measured fluorescence quantitatively by an indirect coupled enzyme assay method. As a neutral endopeptidase substrate, succinyl-Ala-Ala-Phe-7-amino-4-methylcoumarin (suc-AAF-AMC) (1-1315; Bachem) was used. Total 50 μL of the reaction mixture was prepared such that the final concentration was substrate 0.1 mM suc-AAF-AMC, protein in the cell extract 1-6 μg, 100 mM MES buffer (pH 6.5). With the time of addition of the substrate as the start of the reaction, the mixture was reacted at 37° C. for 1 hr, and Phe-AMC was cut out from the substrate by neutral endopeptidase. Then, to the reaction mixture was added a solution (2.5 μL) containing 0.1 mg (0.4 unit equivalent)/mL leucine aminopeptidase (L-5006; Sigma-Aldrich), and 0.2 mM phosphoramidon (4082; Peptide Institute). The mixture was reacted at 37° C. for 30 min, and Phe (phenylalanine) residue was cut out from Phe-AMC by aminopeptidase. Using microplate spectrometer Infinite M-1000 (Tecan), the fluorescence intensity of free AMC was measured by measuring at an excitation wavelength 390 nm and a fluorescence wavelength 460 nm on a half-well size 96-well black plate (#3695; Corning). The neprilysin-dependent neutral endopeptidase activity was determined based on a decrease in the activity due to 10 μM thiorphan (T-6031; Sigma-Aldrich) as a neprilysin specific inhibitor.
After thawing from −80° C., the aforementioned culture supernatant was mixed with 6×SDS-polyacrylamide gel electrophoresis (SDS-PAGE) sample buffer (Nacalai Tesque, Inc.) at a ratio of 5:1, boiled for 5 min, and used as a detection sample of APPsα which is a metabolite of APP by α-secretase and APPsβ which is a metabolite of APP by β-secretase in western blot analysis. […]

The conditions of series [8]: coefficient of partition for octanol, in accordance with Fudouji et al. 2009; cited from earlier work.

Bounds are passed on as bounds.

Consider `O=c1cc(-c2ccc(O)cc2)oc2cc(O)cc(O)c12` [Apigenin], for which, in series [1], the “neprilysin activity potentiating action” value is listed as “about 1.5 times that of control”.

`CC1CCC2C(C1)c1c(c3c(c4c1OC(C)(C)C1CCC(C)CC41)O[C@H](c1cc(O)c(O)c(O)c1)[C@H](OC(=O)c1cc(O)c(O)c(O)c1)C3)OC2(C)C` (some centres unmarked) [NUP-11]: in series [1], the “neprilysin activity potentiating action” value was “about 3.5 times that of control”. Further, in series [2], the “expression amount of neprilysin at the protein level” value was “about 3.3 times that of control”. Moreover, the “expression level of neprilysin at the mRNA level” value (shortened to “expression level of neprilysin”) in series [3] is on record as “about 4 times that of control”. Further, the “β-secretase activity, remaining relative to control” value in series [4] is listed as “about 41 % that of control”. For the same compound, the “extracellularly secreted APPsα/APPsβ ratio” value in series [5] is given as “about 2.0 times that of control”. Besides, the “ADAM17 expression at the mRNA level” value in series [6] is “about 2.4 times that of control”. Further, the “modulator class (neprilysin / α-secretase / β-secretase)” value in series [7] is “double modulator”. Moreover, in series [8], the “log P octanol” value is given as greater than 10.

Consider `CC12CC[C@@H](C(C)(C)O)[C@H](C1)c1c(cc(O)c3c1O[C@H](c1cc(O)c(O)c(O)c1)[C@H](OC(=O)c1cc(O)c(O)c(O)c1)C3)O2` [NUP-6], for which the “log P octanol” value in series [8] is reported as 1.85.

Take `O=C(O)CCCCCCCCCCCCCCOC1CCc2c(c3c(c4c2O[C@H](c2cc(O)c(O)c(O)c2)[C@H](OC(=O)c2cc(O)c(O)c(O)c2)C4)OC(OCCCCCCCCCCCCCCC(=O)O)CC3)O1` (some centres unmarked) [NUP-E15-2]: the “neprilysin activity potentiating action” value in series [1] was “about 1.5 times that of control”. For the same compound, the “expression level of neprilysin” value in series [3] is listed as “about 7.9 times that of control”. In addition, the “ADAM17 expression at the mRNA level” value in series [6] is reported as “about 3.7 times that of control”. For the same compound, in series [7], the “modulator class (neprilysin / α-secretase / β-secretase)” value is “triple modulator”.

In the case of `O=c1cc(-c2ccccc2)oc2cc(O)cc(O)c12` [Chrysin], the “neprilysin activity potentiating action” value in series [1] is reported as “about 1.4 times that of control”.

Consider `O=C(O[C@@H]1Cc2c(O)cc(O)cc2O[C@@H]1c1cc(O)c(O)c(O)c1)c1cc(O)c(O)c(O)c1` [EGCg, (−)-epigallocatechin-3-O-gallate, reference compound], for which the “neprilysin activity potentiating action” value in series [1] is “about 1.5 times that of control”. The “log P octanol” value in series [8] is on record as 1.00.

For the compound `O=c1cc(-c2ccccc2)oc2cc(O)c(O)c(O)c12` [Baicalein], the “neprilysin activity potentiating action” value in series [1] was “about 1.7 times that of control”.

Consider `C/C(=C\Cc1c(O)cc2c(c1O)C[C@@H](OC(=O)c1cc(O)c(O)c(O)c1)[C@@H](c1cc(O)c(O)c(O)c1)O2)CCCC(C)CCCC(C)CCCC(C)C` (some centres unmarked) [NUP-19], for which the “neprilysin activity potentiating action” value in series [1] is “about 2.7 times that of control”. Besides, the “expression amount of neprilysin at the protein level” value in series [2] is “about 3.2 times that of control”. The “expression level of neprilysin” value in series [3] is “about 2.1 times that of control”. Also, the “β-secretase activity, remaining relative to control” value in series [4] is reported as “about 37 % that of control”. Further, the “extracellularly secreted APPsα/APPsβ ratio” value in series [5] is “about 1.4 times that of control”. Also, the “ADAM17 expression at the mRNA level” value in series [6] is reported as “about 1.3 times that of control”. The “modulator class (neprilysin / α-secretase / β-secretase)” value in series [7] is given as “double modulator”. Also, in series [8], the “log P octanol” value is greater than 10.

With `O=c1c(O)c(-c2ccc(O)cc2)oc2cc(O)cc(O)c12` [Kaempferol], the “neprilysin activity potentiating action” value in series [1] is recorded as “about 1.5 times that of control”.

Consider Amentoflavone, for which, in series [1], the “neprilysin activity potentiating action” value was “about 2 times that of control”.

In the case of `C=CCc1ccc(O)c(-c2ccc(O)c(CC=C)c2)c1` [Honokiol], the “neprilysin activity potentiating action” value in series [1] is “about 1.3 times that of control”.
